According to US8569336B2, “Compounds for the treatment of inflammatory disorders” (priority 2008, dated 2013):
Read-outs that look alike come from different tables or passages of the source.

Experiments:
[1] = Area under the curve determinations of plasma levels in rats (rrAUC), oral 10 mg/kg; format: in vivo; settings: rat, read-out: RR AUC (rapid rat AUC, rrAUC)
[2] = test system: TNF-α production from human whole blood; assay: Inhibition of TNF-α production from human whole blood (hWBA), LPS stimulated, ELISA; format: cell-based; settings: Homo sapiens, TNF-α by ELISA, read-out: hWBA (IC50)
[3] = target: T1, purified catalytic domain of recombinant human TACE (rhTACEc) (Homo sapiens, UniProt P78536, N452Q/S266A); assay: TACE kinetic assay: cleavage of internally quenched peptide substrate TNF-FRET 2 (Ki); format: biochemical; settings: TNF-FRET 2 substrate
T1 construct: 6xHis (C); made in house; host or cells: baculovirus/Hi5 insect cells

[4] = LPS-stimulated human whole blood
[5] = 3.5 h, human whole blood diluted 1:1, LPS stimulated, 3.5 h
[6] = plasma, blood collected 0.5-6 h post-dosing
[7] = human whole blood diluted 1:1, LPS stimulated

T1 sequence (P78536 215-477 S266A/N452Q): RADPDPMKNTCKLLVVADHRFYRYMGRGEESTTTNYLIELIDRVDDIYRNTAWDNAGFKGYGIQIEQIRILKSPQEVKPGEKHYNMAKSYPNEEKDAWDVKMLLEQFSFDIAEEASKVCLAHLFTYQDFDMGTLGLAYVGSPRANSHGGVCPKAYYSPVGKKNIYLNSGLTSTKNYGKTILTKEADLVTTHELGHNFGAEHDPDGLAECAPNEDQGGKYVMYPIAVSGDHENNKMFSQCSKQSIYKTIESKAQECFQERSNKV

SMILES	AUC ([1]; plasma 0.5-6 h) [µM·h]	IC50 [2, 4] [nM]	Ki ([3]; read-out: Ki) [nM]	AUC ([1]; plasma 0.5-6 h post-dosing) [µM·h]	IC50 [2, 5] [nM]	Ki ([3]; Ki) [nM]	AUC [1, 6] [µM·h]	IC50 [2, 7] [nM]
COc1ccc2c(c1F)C(=O)N(C[C@@]1(c3cc4ncc(F)cc4o3)NC(=O)NC1=O)C2 [Compound 1311]	14.6	297	1.18					
CCN1CCN(c2ccc3oc([C@]4(CN5Cc6ccc(OCC7CC7)c(F)c6C5=O)NC(=O)NC4=O)cc3n2)CC1 [Compound 900]	0.024	290	0.52					
COc1ccc2c(c1F)C(=O)N(C[C@@]1(c3cc4cc([C@]5(C)NC(=O)NC5=O)c(F)cc4o3)NC(=O)NC1=O)C2 (single isomer, unassigned) [Compound 1327]	2.97	161	0.47					
CCOC(=O)C1CCCN(c2ccc3oc([C@]4(CN5Cc6ccc(OC)cc6C5=O)NC(=O)NC4=O)cc3n2)C1 (stereo partly drawn) [Compound 1516]	0.041	1740	0.5					
COc1ccc2c(c1)C(=O)N(C[C@@]1(c3cc4nc(Nc5c(C)nn(C)c5C)ccc4o3)NC(=O)NC1=O)C2 [Compound 2112]			0.385	0.019	533			
COc1ccc2c(c1)C(=O)N(C[C@@]1(c3cc4cnc(C(F)(F)F)cc4o3)NC(=O)NC1=O)C2 [Compound 2269]				19.3	1620	0.497		
CCOc1ccc2c(c1F)C(=O)N(C[C@@]1(c3cc4nc(N5CCN(CC)CC5)ccc4o3)NC(=O)NC1=O)C2 [Compound 903]	1	193	0.557					
COc1ccc2c(c1)C(=O)N(C[C@@]1(c3cc4nc(-c5c(C)nn(C)c5C)ccc4o3)NC(=O)NC1=O)C2 [Compound 2105]			0.155	7.54	216			
COc1ccc2c(c1)C(=O)N(C[C@@]1(c3cc4nc(-c5ccc(C#N)nc5)ccc4o3)NC(=O)NC1=O)C2 [Compound 2472]			0.745				0.536	1610
COc1ccc2c(c1)C(=O)N(C[C@@]1(c3cc4nc(C#N)ccc4o3)NC(=O)NC1=O)C2 [Compound 2473]			0.32				5.69	564
CCN1CCC(c2nc3cc([C@]4(CN5Cc6ccc(OC)c(F)c6C5=O)NC(=O)NC4=O)oc3cc2F)CC1 [Compound 1325]	0.009	175	1					
COc1ccc2c(c1)C(=O)N(C[C@@]1(c3cc4nc(NS(=O)(=O)C5CC5)ccc4o3)NC(=O)NC1=O)C2 [Compound 1938]	0.015	518	0.58					
COc1ccc2c(c1F)C(=O)N(C[C@@]1(c3cc4ncc(C(N)=O)cc4o3)NC(=O)NC1=O)C2 [Compound 1908]	0.094	136	0.42					
COc1ccc2c(c1)C(=O)N(C[C@@]1(c3cc4cnc(Cl)cc4o3)NC(=O)NC1=O)C2 [Compound 2285]			0.44				22.2	368
COc1ccc2c(c1)C(=O)N(C[C@@]1(c3cc4c5c(ccc4o3)C(=O)NC5)NC(=O)NC1=O)C2 [Compound 2504]			0.45				0.181	189
COc1ccc2c(c1)C(=O)N(C[C@@]1(c3cc4c(C)nccc4o3)NC(=O)NC1=O)C2 [Compound 2284]			0.5				2.8	198
COc1ccc2c(c1)C(=O)N(C[C@@]1(c3cc4nc(N5CCCC(C(N)=O)C5)ccc4o3)NC(=O)NC1=O)C2 (stereo partly drawn) [Compound 1515]	0.145	245	0.7					
COc1ccc2c(c1)C(=O)N(C[C@@]1(c3cc4cnc(C)cc4o3)NC(=O)NC1=O)C2 [Compound 2258]			0.366	19.1	345			
COc1ccc2c(c1)C(=O)N(C[C@@]1(c3cc4nc(N5C(=O)CC[C@H]5CO)ccc4o3)NC(=O)NC1=O)C2 [Compound 2156]			0.976	0.033	325			
COc1ccc2c(c1)C(=O)N(C[C@@]1(c3cc4cnc(-c5cccc(C#N)c5)cc4o3)NC(=O)NC1=O)C2 [Compound 2489]			0.799				10.6	8420
COc1ccc2c(c1)C(=O)N(C[C@@]1(c3cc4nc(N)ccc4o3)NC(=O)NC1=O)C2 [Compound 1936]	0.424	187				0.51		
COc1ccc2c(c1)C(=O)N(C[C@@]1(c3cc4nc(N(c5cccnc5)C5CCNCC5)ccc4o3)NC(=O)NC1=O)C2 [Compound 2145]				0.086	174	0.547		
COc1ccc2c(c1)C(=O)N(C[C@@]1(c3cc4ccc(-c5nnco5)cc4o3)NC(=O)NC1=O)C2 [Compound 2189]				0.988	672	0.536		
COc1ccc2c(c1)C(=O)N(C[C@@]1(c3cc4nc(Nc5ncccn5)ccc4o3)NC(=O)NC1=O)C2 [Compound 2169]			0.576	4.83	920			

SMILES	AUC ([1]; plasma 0.5-6 h) [µM·h]	IC50 [2, 4] [nM]	Ki ([3]; read-out: Ki) [nM]	AUC ([1]; plasma 0.5-6 h post-dosing) [µM·h]	IC50 [2, 5] [nM]	Ki ([3]; Ki) [nM]	AUC [1, 6] [µM·h]	IC50 [2, 7] [nM]
COc1ccc2c(c1F)C(=O)N(C[C@@]1(c3cc4nc(N5CCC5=O)ccc4o3)NC(=O)NC1=O)C2 [Compound 1522]	4.63	211	0.3					
COc1ccc2c(c1)C(=O)N(C[C@@]1(c3cc4c(o3)CCN(C)C4)NC(=O)NC1=O)C2 [Compound 2263]			7.71	0.24	≥ 1000			
COc1ccc2c(c1)C(=O)N(C[C@@]1(c3cc4cnc(N5CCNC5=O)cc4o3)NC(=O)NC1=O)C2 [Compound 2252]				1.18	206	1.79		
COc1ccc2c(c1)C(=O)N(C[C@@]1(c3cc4cc(C5(C(N)=O)CC5)ccc4o3)NC(=O)NC1=O)C2 [Compound 2421]			0.38				0.037	886
COc1ccc2c(c1)C(=O)N(C[C@@]1(c3cc4c(o3)CN(C)CC4)NC(=O)NC1=O)C2 [Compound 2264]			0.417	0.623	1180			
COc1ccc2c(c1)C(=O)N(C[C@@]1(c3cc4cc(F)ncc4o3)NC(=O)NC1=O)C2 [Compound 2304]			0.276				9.31	419
COc1ccc2c(c1)C(=O)N(C[C@@]1(c3cc4nc(NC5CCN(C)CC5)ccc4o3)NC(=O)NC1=O)C2 [Compound 2141]			0.599	2.71	381			
COc1ccc2c(c1F)C(=O)N(C[C@@]1(c3cc4cnccc4o3)NC(=O)NC1=O)C2 [Compound 2310]			0.37				2.31	197
CCOC(=O)N1CCc2oc([C@]3(CN4Cc5ccc(OC)cc5C4=O)NC(=O)NC3=O)cc2C1 [Compound 315]	4.03	654				0.93		
COc1ccc2c(c1)C(=O)N(C[C@@]1(c3cc4nc(-c5cccnc5)ccc4o3)NC(=O)NC1=O)C2 [Compound 2107]			0.902	3.08	171			
COc1ccc2c(c1F)C(=O)N(C[C@@]1(c3cc4nc(-n5cccn5)ccc4o3)NC(=O)NC1=O)C2 [Compound 1524]	8	557	0.3					
COc1ccc2c(c1)C(=O)N(C[C@@]1(c3cc4nc(-c5ccc(N)nc5)ccc4o3)NC(=O)NC1=O)C2 [Compound 2102]				0.092	164	0.328		
COc1ccc2c(c1)C(=O)N(C[C@@]1(c3cc4cc(-c5cc[nH]n5)ccc4o3)NC(=O)NC1=O)C2 [Compound 2219]			0.682	1.02	1390			
COc1ccc2c(c1)C(=O)N(C[C@@]1(c3cc4cc(-c5ccc(O)cc5)ncc4o3)NC(=O)NC1=O)C2 [Compound 2243]			0.427	0.027	753			
COc1ccc2c(c1F)C(=O)N(C[C@@]1(c3cc4cc5c(c(F)c4o3)C(=O)NC5)NC(=O)NC1=O)C2 [Compound 2499]			0.33				1.08	72
COc1ccc2c(c1)C(=O)N(C[C@@]1(c3cc4ccc(-c5nnc(C)o5)cc4o3)NC(=O)NC1=O)C2 [Compound 2190]			0.515	0.414	958			
COc1ccc2c(c1F)C(=O)N(C[C@@]1(c3cc4c(C)nccc4o3)NC(=O)NC1=O)C2 [Compound 2204]			0.34	0.983	115			
CCC1(c2ccc3oc([C@]4(CN5Cc6ccc(OC)c(F)c6C5=O)NC(=O)NC4=O)cc3c2)NC(=O)NC1=O (stereo partly drawn) [Compound 1307]	2.01	204	0.81					
COc1ccc2c(c1)C(=O)N(C[C@@]1(c3cc4cc(C(=NO)N5CCN(C6CC6)CC5)ccc4o3)NC(=O)NC1=O)C2 [Compound 2455]			0.58				0.013	885
COc1ccc2c(c1)C(=O)N(C[C@@]1(c3cc4ccccc4o3)NC(=O)NC1=O)C2 [Compound 2214]			0.274	0.195	2310			
COc1ccc2c(c1F)C(=O)N(C[C@@]1(c3cc4c5c(ccc4o3)CNC5=O)NC(=O)NC1=O)C2 [Compound 2505]			0.6				1.12	151
COc1ccc2c(c1)C(=O)N(C[C@@]1(c3cc4nc(-c5ccncc5)ccc4o3)NC(=O)NC1=O)C2 [Compound 2110]			0.62	10.5	351			
COc1ccc2c(c1)C(=O)N(C[C@@]1(c3cc4nc(N5CCCCC5)ccc4o3)NC(=O)NC1=O)C2 [Compound 2168]			0.34	3.53	885			
COc1ccc2c(c1F)C(=O)N(C[C@@]1(c3cc4nc(-c5ccncc5)ccc4o3)NC(=O)NC1=O)C2 [Compound 2122]				8.18	426	0.58		
